Experimental data: ChEMBL document CHEMBL1914350, “Convolutamines I and J, antitrypanosomal alkaloids from the bryozoan Amathia tortusa” (Bioorg Med Chem, 2011)
Values after ≈ are worked out from the molar mass of the structure shown.

Key:
[1] = system: P388; test: Cytotoxicity against mouse P388 cells; format: functional, cell-based
[2] = system: Trypanosoma brucei brucei; test: Antitrypanosomal activity against Trypanosoma brucei brucei after 48 hrs by alamar blue assay; format: functional, organism-based
[3] = system: HEK293; test: Cytotoxicity against human HEK293 cells at 41 uM after 48 hrs by alamar blue assay; format: cell-based; conditions: hek293, 48 h
[4] = Lipophilicity, log P of the compound; format: physicochemical; conditions: octanol/water
[5] = system: Haemonchus contortus; test: Antiparasitic activity against Haemonchus contortus assessed as inhibition of free-living larval stage; format: functional
[6] = Antimitotic activity in sea urchins assessed as inhibition of fertilized egg cell division; format: functional, Echinoidea
[7] = system: HEK293; test: Cytotoxicity against human HEK293 cells after 48 hrs by alamar blue assay; format: cell-based; conditions: HEK293, 48 h
[8] = Selectivity index, ratio of IC50 for human HEK293 cells to IC50 for Trypanosoma brucei brucei; format: toxicity, cell-based; conditions: HEK293 cells versus Trypanosoma brucei brucei, read-out: Ratio IC50
[9] = system: HEK293; test: Cytotoxicity against human HEK293 cells at 70 uM after 48 hrs by alamar blue assay; format: cell-based; conditions: hek293, 48 h

SMILES: COc1c(Br)cc(Br)c(CCN2COC(C)C2)c1Br (stereo unspecified) [CONVOLUTAMINE D]
- IC50 [1]: 1.4 µg/mL (≈ 3.06 µM)

SMILES: COc1c(Br)cc(Br)c(CCN2C=[N+](C)CCC2)c1Br [CONVOLUTAMINE J]
- IC50 [2]: 13700 nM
- Activity [3]: Non-toxic
- logP [4]: 3.9

SMILES: CNCCc1c(Br)c(Br)c(Br)c(OC)c1OC [CONVOLUTAMINE H]
- LD99 [5]: 0.2 µg/mL

SMILES: COc1ccc(Br)c(CCN(C)CC(C)O)c1Br (stereo unspecified) [CONVOLUTAMINE B]
- IC50 [1]: 1.4 µg/mL (≈ 3.67 µM)

SMILES: CNCCc1c(Br)cc(Br)c(OC)c1Br [CONVOLUTAMINE F]
- IC50 [6]: 81 µg/mL (≈ 202 µM)

SMILES: COc1c(Br)cc(Br)c(CCN(C)CC(C)O)c1Br (stereo unspecified) [CONVOLUTAMINE A]
- IC50 [1]: 1.4 µg/mL (≈ 3.04 µM)

SMILES: COc1c(Br)cc(Br)c(CCNCCCN(C)C)c1Br [CONVOLUTAMINE I]
- IC50 [2]: 1100 nM
- IC50 [7]: 22 µM
- selectivity ratio [8]: 18.3
- logP [4]: 4.1

SMILES: N=C(N)c1ccc(OCCCCCOc2ccc(C(=N)N)cc2)cc1 [PENTAMIDINE]
- IC50 [2]: 15.1 nM
- IC50 [7]: 71 µM

SMILES: N=C(N)c1ccc(/N=N/Nc2ccc(C(=N)N)cc2)cc1 [DIMINAZENE]
- IC50 [2]: 70.1 nM
- Activity [9]: Non-toxic
